Reference: PMC8100298, “Histone deacetylase inhibitor resminostat in combination with sorafenib counteracts platelet-mediated pro-tumoral effects in hepatocellular carcinoma” (Scientific Reports, 2021)
Like-named read-outs stand apart in the source and are kept apart here.

Tests used:
Assay in all cases: Efficacy screening assay
Assay type in all cases: cell-based
[1] = tested on: CALU6; settings: CALU6, lung
Method: (§1) The experiment was performed by Oncolead GmbH & Co. KG (Karlsfeld , Germany), based on a standardized screening procedure . Cell lines were purchased directly from the ATCC, NCI and DSMZ cell line c ollections. Cells used for the study had undergone less than 20 passages. To ensure the absence of potential contamination and wrong assignment, all cell lines were tested using a whole genome assay (Agilent, USA). All cell lines were grown as recommended by the suppliers and with addition of 100 U/mL penicillin G and 100 µg/mL; streptomycin. Cell growth and treatments were performed in Nunclon D 96 -well plates (NUNC, Germany). The optimal seeding density for each cell line was determined to ensure exponential growth for the duration of the experiment. All cells growing without anti-cancer agents were sub-conﬂuent by the end of the treatment, as determined by visual inspection.
(§2) After an initial 24 h pre-growth period, the compounds were added. The vehicle concentration […]
(§3) was 0.1% DMSO. After incubation at 37°C for 72 h, the culture medium was aspirated, and the cells were precipitated by the addition of 10% trichloroacetic acid (Sigma-Aldrich, Missouri, US). After overnight incubation at 4°C, the plates were washed three times with deionized water. The precipitates were then stained with SRB (0.4% wt/v sulforhodamine B solution in 1% acetic acid, Sigma-Aldrich, Missouri, US). Afterwards, the plates were washed six times with 1% acetic acid to remove unbound stain. After drying the plates at room temperature, the bound SRB was solubilized with 10 mM Tris base and the optical density was measured at 520 nm using a Victor2 plate reader (Perkin Elmer, Germany). Blank OD values were subtracted from mean OD values for each concentration. The nonlinear curve ﬁtting and EC50 calculations were per formed using XLﬁt and algorithm “205” (ID Business […]
(§4) For comparison of EC50 values in Figure 1F, one-way ANOVA with multiple comparison testing (Tukey) was performed. Multiplicity adjusted p -values for the EC50 with sorafenib versus resminostat for each cell line and comparison between cell lines for sorafenib are presented (95% confidence interval for significance testing). For comparison of EC50 data in Figure 2B, one-way ANOVA with multiple comparison testing (Tukey) was performed. Multiplicity adjusted p-values with 95% confidence interval was applied. For the invasion assays in Figure 4, one-way ANOVA with multiple comparison testing (Tukey) was performed. Multiplicity adjusted p-values with 95% confidence interval was applied. The adjusted p-values comparing vehicle control without vs. with platelets and compound

[2] = tested on: HS729; settings: HS729, muscle, 72 h
Method: as §1, §2, §3, §4

[3] = tested on: HCT15; settings: HCT15, colon
Method: as §1, §2, §3, §4

[4] = tested on: NCIH292; settings: NCIH292, lung
Method: as §1, §2, §3, §4

[5] = tested on: U2OS; settings: 72 h, bone
Method: as §1, §2, §3, §4

[6] = tested on: SKBR3; settings: SKBR3, breast
Method: as §1, §2, §3, §4

[7] = tested on: EFO21; settings: EFO21, ovary
Method: as §1, §2, §3, §4

[8] = tested on: PLCPRF5; settings: Homo sapiens, PLC-PRF-5, PLCPRF5, liver, 72 h
Method: as §1, §2, §3, §4

[9] = tested on: OVCAR3; settings: OVCAR3, ovary
Method: as §1, §2, §3, §4

[10] = tested on: T24; settings: T24, bladder
Method: as §1, §2, §3, §4

[11] = tested on: HS578T; settings: 72 h, breast
Method: as §1, §2, §3, §4

[12] = tested on: PANC1; settings: PANC1, pancreas
Method: as §1, §2, §3, §4

[13] = tested on: SKNSH; settings: 72 h, brain
Method: as §1, §2, §3, §4

[14] = tested on: HELA; settings: 72 h, cervix
Method: as §1, §2, §3, §4

[15] = tested on: SNB75; settings: SNB75, brain
Method: as §1, §2, §3, §4

[16] = log of EC50, negative, read-out: log(EC50) (converted)

Which EC50 ([1]; 72 h, read-out: EC50) does the source give for `CN(C)Cc1ccc(S(=O)(=O)n2ccc(/C=C/C(=O)NO)c2)cc1` [resminostat, Resminostat] here?
Its EC50 is 2.93 µM.

And the EC50 ([1]; Homo sapiens, Calu-6, 72 h, log of EC50, negative, read-out: log(EC50) (converted))?
The EC50 was 2.95 µM.

What about the EC50 ([1]; Homo sapiens, Calu-6, 72 h, read-out: EC50) of the same compound?
The EC50 was 2.93 µM.

What about the EC50 [2, 16] of the same compound?
Its EC50 is 3.39 µM.

What about the EC50 ([2]; read-out: EC50) of the same compound?
The EC50 was 3.35 µM.

And the EC50 ([3]; 72 h, read-out: EC50)?
Its EC50 is 2.07 µM.

What about the EC50 ([3]; Homo sapiens, HCT-15, 72 h, log of EC50, negative, read-out: log(EC50) (converted)) of the same compound?
The EC50 was 2.09 µM.

What about the EC50 ([3]; Homo sapiens, HCT-15, 72 h, read-out: EC50) of the same compound?
Its EC50 is 2.07 µM.

And the EC50 ([4]; Homo sapiens, NCI-H292, 72 h, log of EC50, negative, read-out: log(EC50) (converted))?
Its EC50 is 6.31 µM.

What about the EC50 ([4]; Homo sapiens, NCI-H292, 72 h, read-out: EC50) of the same compound?
The EC50 was 6.27 µM.

What about the EC50 ([4]; 72 h, read-out: EC50) of the same compound?
Its EC50 is 6.27 µM.

What about the EC50 ([5]; Homo sapiens, log of EC50, negative, read-out: log(EC50) (converted)) of the same compound?
The EC50 was 1.17 µM.

What about the EC50 ([5]; Homo sapiens, read-out: EC50) of the same compound?
Its EC50 is 1.16 µM.

And the EC50 ([5]; read-out: EC50)?
Its EC50 is 1.16 µM.

And the EC50 ([6]; Homo sapiens, SK-BR-3, 72 h, log of EC50, negative, read-out: log(EC50) (converted))?
The EC50 was 0.933 µM.

What about the EC50 ([6]; Homo sapiens, SK-BR-3, 72 h, read-out: EC50) of the same compound?
Its EC50 is 0.93 µM.

And the EC50 ([6]; 72 h, read-out: EC50)?
The EC50 was 0.93 µM.

And the EC50 ([7]; 72 h, read-out: EC50)?
Its EC50 is 7.17 µM.

And the EC50 ([7]; Homo sapiens, EFO-21, 72 h, log of EC50, negative, read-out: log(EC50) (converted))?
The EC50 was 7.24 µM.

What about the EC50 ([7]; Homo sapiens, EFO-21, 72 h, read-out: EC50) of the same compound?
The EC50 was 7.17 µM.

What about the EC50 [8, 16] of the same compound?
Its EC50 is 3.39 µM.

And the EC50 ([8]; read-out: EC50)?
The EC50 was 3.42 µM.

What about the EC50 ([9]; Homo sapiens, OVCAR-3, 72 h, log of EC50, negative, read-out: log(EC50) (converted)) of the same compound?
Its EC50 is 3.55 µM.

What about the EC50 ([9]; Homo sapiens, OVCAR-3, 72 h, read-out: EC50) of the same compound?
The EC50 was 3.55 µM.

What about the EC50 ([9]; 72 h, read-out: EC50) of the same compound?
The EC50 was 3.55 µM.

What about the EC50 ([10]; Homo sapiens, T-24, 72 h, log of EC50, negative, read-out: log(EC50) (converted)) of the same compound?
Its EC50 is 0.933 µM.

And the EC50 ([10]; Homo sapiens, T-24, 72 h, read-out: EC50)?
Its EC50 is 0.937 µM.

What about the EC50 ([10]; 72 h, read-out: EC50) of the same compound?
The EC50 was 0.94 µM.

What about the EC50 ([11]; Homo sapiens, Hs-578T, log of EC50, negative, read-out: log(EC50) (converted)) of the same compound?
The EC50 was 3.98 µM.

What about the EC50 ([11]; Homo sapiens, Hs-578T, read-out: EC50) of the same compound?
Its EC50 is 4.03 µM.

What about the EC50 ([11]; read-out: EC50) of the same compound?
The EC50 was 4.03 µM.

What about the EC50 ([12]; Homo sapiens, PANC-1, 72 h, log of EC50, negative, read-out: log(EC50) (converted)) of the same compound?
Its EC50 is 6.76 µM.

And the EC50 ([12]; Homo sapiens, PANC-1, 72 h, read-out: EC50)?
Its EC50 is 6.79 µM.

And the EC50 ([12]; 72 h, read-out: EC50)?
The EC50 was 6.79 µM.

What about the EC50 ([13]; Homo sapiens, SK-N-SH, log of EC50, negative, read-out: log(EC50) (converted)) of the same compound?
The EC50 was 3.63 µM.

And the EC50 ([13]; Homo sapiens, SK-N-SH, read-out: EC50)?
Its EC50 is 3.67 µM.

And the EC50 ([13]; read-out: EC50)?
Its EC50 is 3.67 µM.

What about the EC50 ([14]; Homo sapiens, HeLa, log of EC50, negative, read-out: log(EC50) (converted)) of the same compound?
Its EC50 is 3.31 µM.

What about the EC50 ([14]; Homo sapiens, HeLa, read-out: EC50) of the same compound?
Its EC50 is 3.31 µM.

What about the EC50 ([14]; read-out: EC50) of the same compound?
Its EC50 is 3.32 µM.

What about the EC50 ([15]; Homo sapiens, SNB-75, 72 h, log of EC50, negative, read-out: log(EC50) (converted)) of the same compound?
The EC50 was 6.76 µM.

What about the EC50 ([15]; Homo sapiens, SNB-75, 72 h, read-out: EC50) of the same compound?
The EC50 was 6.75 µM.

What about the EC50 ([15]; 72 h, read-out: EC50) of the same compound?
The EC50 was 6.75 µM.
